Measurements reported in US9867375B2, “Methods of pest control in soybean” (Syngenta Participations AG, priority 2012, dated 2018).

Tested on: Euschistus heros
Experiment: Euschistus heros (Neotropical brown stink bug) contact/feeding activity on sprayed soybean plants
Assay type: in vivo
Settings: for pest or weed control at 50 ppm: Euschistus heros, 120 h, sprayed 2 week old soybean plants, 10 N-2 nymphs, evaluation 5 days after infestation on mortality and growth effects; for control at low application rates: sprayed soybean plants, N-2 nymphs
Method: Euschistus heros (Neotropical brown stink bug) (contact/feeding activity) 2 week old soybean plants are sprayed in a turn table spray chamber with the diluted spray solutions. After drying, 2 soybean seeds are added and plants are infested with 10 N-2 nymphs of the neotropical brown stink bug Euschistus heros in plastic test boxes. Boxes are incubated in a climate chamber at 25° C. and 60% RH. Evaluation is done 5 days after infestation on mortality and growth effects.

With CC(C)C(=O)NCc1ccc(C2=NOC(c3cc(Cl)cc(Cl)c3)(C(F)(F)F)C2)cc1Cl (stereo not drawn) [Compound A2] the pest or weed control at 50 ppm was ≥ 50%.

CC(=O)NCc1ccc(N2CCC(c3cc(Cl)cc(Cl)c3)(C(F)(F)F)C2)cc1C (stereo not drawn) [Compound A4, N-{4-[3-(3,5-dichlorophenyl)-3-(trifluoromethyl)pyrrolidin1-yl]-2-methyl-benzyl)acetamide] was tested, and the pest or weed control at 50 ppm was ≥ 50%.

In the case of CC(=O)NCc1ccc(C2=NCC(c3cc(Cl)cc(Cl)c3)(C(F)(F)F)C2)cc1Br (stereo not drawn) [Compound A5, N-{2-bromo-4-[4-(3,5-dichlorophenyl)-4-trifluoromethyl-4,5-dihydro-3H-pyrrol-2yl]-benzyl}acetamide], the pest or weed control at 50 ppm is reported as ≥ 50%.

In the case of N#Cc1cc(C2=NCC(c3cc(Cl)c(Cl)c(Cl)c3)(C(F)(F)F)C2)ccc1-n1cncn1 (stereo not drawn) [Compound C2, 2-(1,2,4-triazol-1-yl)-5-[3-(3,4,5-trichlorophenyl)-3-(trifluoromethyl)-2,4-dihydropyrrol-5-yl]benzonitrile], the “control at low application rates” value is reported as “excellent control”.

With N#Cc1cc(C2=NOC(c3cc(Cl)c(F)c(Cl)c3)(C(F)(F)F)C2)ccc1-n1cncn1 (stereo not drawn) [Compound C3] the “control at low application rates” value was “excellent control”.

For N#Cc1cnn(-c2ccc(C3=NOC(c4cc(Cl)c(F)c(Cl)c4)(C(F)(F)F)C3)cc2C#N)c1 (stereo not drawn) [Compound D1], the “control at low application rates” value was “excellent control”.
